Data taken from EP4778929A1, “NOVEL TYPE I TOPOISOMERASE INHIBITOR, AND PREPARATION METHOD THEREFOR AND USE THEREOF” (priority 2023, dated 2025).
Where “and” joins values, the source holds several entries; their conditions need not be identical. Equal values may be shown once. Read-outs that look alike come from different tables or passages of the source.

Tests used:
[1] = biological target: T1, topoisomerase I (Topo I) (Homo sapiens, UniProt P11387); test: Topo I enzyme-inhibitory activity by agarose-gel electrophoresis (plasmid relaxation); type: biochemical
T1 sequence (P11387 1-765): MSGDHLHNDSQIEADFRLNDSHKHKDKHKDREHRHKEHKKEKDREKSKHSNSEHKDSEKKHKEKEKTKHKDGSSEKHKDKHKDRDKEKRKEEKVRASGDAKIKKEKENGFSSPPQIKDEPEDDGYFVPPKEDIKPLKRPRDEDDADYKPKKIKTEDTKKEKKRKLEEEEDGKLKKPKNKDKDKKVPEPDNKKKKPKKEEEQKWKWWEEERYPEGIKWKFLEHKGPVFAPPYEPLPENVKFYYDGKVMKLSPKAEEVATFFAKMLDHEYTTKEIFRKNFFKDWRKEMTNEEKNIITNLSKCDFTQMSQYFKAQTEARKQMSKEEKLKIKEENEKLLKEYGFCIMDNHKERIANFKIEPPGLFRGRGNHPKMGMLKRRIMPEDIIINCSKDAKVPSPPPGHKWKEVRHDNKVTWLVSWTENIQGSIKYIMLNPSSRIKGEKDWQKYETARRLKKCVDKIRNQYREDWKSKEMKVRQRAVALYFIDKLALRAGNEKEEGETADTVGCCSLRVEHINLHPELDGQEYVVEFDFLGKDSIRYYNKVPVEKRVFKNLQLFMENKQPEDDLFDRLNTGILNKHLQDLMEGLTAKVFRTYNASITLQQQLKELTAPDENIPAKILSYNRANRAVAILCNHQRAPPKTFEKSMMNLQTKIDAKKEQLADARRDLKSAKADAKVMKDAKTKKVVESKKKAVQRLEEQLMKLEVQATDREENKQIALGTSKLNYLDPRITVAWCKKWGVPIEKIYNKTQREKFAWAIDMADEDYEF
Text: Test Example 1. Determination of Topo I Enzyme-Inhibitory Activity by Agarose-Gel Electrophoresis
Principle: Type-I topoisomerase (Topo I) relaxes positive and negative supercoils by introducing transient single-strand breaks and forming reversible cleavage complexes (Topo I-DNA covalent complexes). Gel electrophoresis can resolve DNA species of identical molecular weight but different topology: supercoiled plasmid migrates fastest, whereas the nicked, relaxed form moves more slowly. Quantifying the decrease in supercoiled DNA therefore provides a direct measure of Topo I activity.
Experimental Procedure: A 1× reaction buffer was prepared (20 mM Tris-HCl pH 7.5, 200 mM NaCl, 0.25 mM EDTA, 5 % (v/v) glycerol, 0.5 µg pNO1 plasmid substrate). Test compounds (5 % DMSO final) were added to the buffer, followed by Topo I enzyme (0.75 U per reaction). After gentle mixing, reactions were incubated at 37 °C for 30 min. Positive (enzyme + vehicle) and negative (no enzyme) controls were included in parallel. Reactions were terminated by adding STEB buffer and chloroform/iso-amyl alcohol (24:1, v/v), vortexed and centrifuged for 2 min. The aqueous (upper) phase was loaded onto a 1 % (w/v) agarose gel, electrophoresed for 1-2 h, stained with GelRed, and imaged under UV trans-illumination.
Data Analysis: Band intensities of supercoiled DNA were quantified with image-analysis software. Relaxation activity (%) was calculated as (Max-Sample)/ (Max-Min)*100%, where Max = intensity of the no-enzyme negative control, Min = intensity of the vehicle-only positive control, and Sample = intensity of the compound-treated lane. Dose-response data (compound concentration, X; relaxation activity %, Y) were fitted in Excel or GraphPad Prism 5.0 using the four-parameter logistic equation: Y=Bottom + (Top-Bottom)/(1+(IC50/X)[…]) to derive the IC50 value for each compound.
Table 1. Compound-mediated inhibition of topoisomerase I (Topo I) enzymatic activity

[2] = tested on: HCT116 cells; test: Inhibition of cell proliferation by CTG (CellTiter-Glo) luminescence assay; type: cell-based; details: Homo sapiens, read-out: HCT116, IC50
Summary of the method: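 Nine-point 1:3 dilutions applied to HCT116 cells (2 000/well, McCoy's 5a + 10 % FBS) for 72 h at 37 °C, final DMSO 0.25 %. Viability read by CellTiter-Glo luminescence; % inhibition versus DMSO controls fitted to four-parameter logistic for IC50.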

[3] = read-out: inhibition of topoisomerase I (Topo I) enzymatic activity, IC50; 0.75 U Topo I, pNO1 plasmid, 37 °C, 30 min; compounds listed by group (Group A / Group B)
[4] = 0.75 U Topo I, pNO1 plasmid, 37 °C, 30 min; compounds listed by group (Group A / Group B); read-out: inhibition of topoisomerase I (Topo I) enzymatic activity, IC50
[5] = HCT-116, 72 h incubation, CellTiter-Glo

| Structure (SMILES) | IC50 [1, 3] | IC50 ([2]; HCT-116, 72 h) | IC50 [1, 4] | IC50 [2, 5] |
| --- | --- | --- | --- | --- |
| CC[C@@]1(O)C(=O)OCc2c1cc1n(c2=O)Cc2c-1c(=O)c1cc(F)c(N)cc1n2C1CCC(C)(C)CC1 [Example 70, (S)-9-amino-4-ethyl-8-fluoro-4-hydroxy-11-(4,4-dimethylcyclohexyl)-1,12-dihydro-14H-pyrano[3,4:6,7]indolizino[2,1-b] quinoline-3,6,14(4H,11H)-trione] | 200 to 500 nM | < 20 nM | – | – |
| CC[C@@]1(O)C(=O)OCc2c1cc1n(c2=O)Cc2c-1c(=O)c1cc(F)ccc1n2-c1cccc(N)c1 [Example 71, (S)-11-(3-aminophenyl)-4-ethyl-8-fluoro-4-hydroxy-1H-pyrano[3,4:6,7]indolizino[2,1-b]quinoline-3,6,14(4H,11H,12H)-trione] | 200 to 500 nM | < 20 nM | – | – |
| CC[C@@]1(O)C(=O)OCc2c1cc1n(c2=O)Cc2c-1c(=O)c1cc(F)ccc1n2-c1ccc(N)cc1 [Example 72, (S)-11-(4-aminophenyl)-4-ethyl-8-fluoro-4-hydroxy-1H-pyrano[3,4:6,7]indolizino[2,1-b]quinoline-3,6,14(4H,11H,12H)-trione] | 200 to 500 nM | < 20 nM | – | – |
| CC[C@@]1(O)C(=O)OCc2c1cc1n(c2=O)Cc2c-1c(=O)c1cc(F)ccc1n2-c1cccc(OC)c1 [Example 73, (S)-4-ethyl-8-fluoro-4-hydroxy-11-(3-methoxyphenyl)-1,12-dihydro-14H-pyrano[3,4:6,7]indolizino[2,1-b]quinoline-3,6,14(4H,11H)-trione] | 200 to 500 nM | < 20 nM | – | – |
| CC[C@@]1(O)C(=O)OCc2c1cc1n(c2=O)Cc2c-1c(=O)c1cc(F)cc(CNC3CC3)c1n2C [Example 88, (S)-10-((cyclopropylamino)methyl)-4-ethyl-8-fluoro-4-hydroxy-11-methyl-1,12-dihydro-14H-pyrano[3,4:6,7]indolizino[2,1-b] quinoline-3,6,14(4H,11H)-trione] | 200 to 500 nM | < 20 nM | – | – |
| CC[C@@]1(O)C(=O)OCc2c1cc1n(c2=O)Cc2c-1c(=O)c1cc(F)cc(CN(C)C3CC3)c1n2C [Example 89, (S)-10-((cyclopropyl(methyl)amino)methyl)-4-ethyl-8-fluoro-4-hydroxy-11-methyl-1,12-dihydro-14H-pyrano[3,4:6,7]indolizino[2,1-b]quinoline-3,6,14(4H,11H)-trione] | 200 to 500 nM | < 20 nM | – | – |
| CC[C@@]1(O)C(=O)OCc2c1cc1n(c2=O)Cc2c-1c(=O)c1cc(F)ccc1n2CCN(C1CC1)C1CC(F)(F)C1 [Example 101, (S)-11-(2-(cyclopropyl(3,3-difluorocyclobutyl)amino)ethyl)-4-ethyl-8-fluoro-4-hydroxy-1,12-dihydro-14H-pyrano[3,4:6,7] indolizino[2,1-b]quinoline-3,6,14(4H,11H)-trione] | 200 to 500 nM and < 200 nM | < 20 nM | – | – |
| CC[C@@]1(O)C(=O)OCc2c1cc1n(c2=O)Cc2c-1c(=O)c1cc(F)ccc1n2CCNC1CCC1 [Example 106] | 200 to 500 nM | < 20 nM | – | – |
| CC[C@@]1(O)C(=O)OCc2c1cc1n(c2=O)Cc2c-1c(=O)c1cc(F)ccc1n2CCN(C1CCC1)C1CCC1 [Example 119] | 200 to 500 nM | < 20 nM | – | – |
| CC[C@@]1(O)C(=O)OCc2c1cc1n(c2=O)Cc2c-1c(=O)c1cc(F)ccc1n2CCN(C1CCCC1)C1CC1 [Example 137] | 200 to 500 nM | < 20 nM | – | – |
| CC[C@@]1(O)C(=O)OCc2c1cc1n(c2=O)Cc2c-1c(=O)c1cc(F)ccc1n2CCNC1CCCC1(C)C (stereo partly drawn) [Example 138] | 200 to 500 nM | < 20 nM | – | – |
| CC[C@@]1(O)C(=O)OCc2c1cc1n(c2=O)Cc2c-1c(=O)c1cc(F)ccc1n2CCN(C)C1CCCC1(C)C (stereo partly drawn) [Example 139] | 200 to 500 nM | < 20 nM | – | – |
| CC[C@@]1(O)C(=O)OCc2c1cc1n(c2=O)Cc2c-1c(=O)c1cc(F)ccc1n2CCN(C1CC1)C1CC1 [Example 140] | < 200 nM | < 20 nM | – | – |
| CC[C@@]1(O)C(=O)OCc2c1cc1n(c2=O)Cc2c-1c(=O)c1cc(F)ccc1n2CCN(C1CCC1)C1CC1 [Example 141] | 200 to 500 nM | < 20 nM | – | – |
| CC[C@@]1(O)C(=O)OCc2c1cc1n(c2=O)Cc2c-1c(=O)c1cc(F)c(C)cc1n2CCNC1CCC1 [Example 159] | 200 to 500 nM | < 20 nM | – | – |
| CC[C@@]1(O)C(=O)OCc2c1cc1n(c2=O)Cc2c-1c(=O)c1cc(F)c(C)cc1n2CCNC1CC(F)(F)C1 [Example 160] | – | – | 200 to 500 nM | < 20 nM |
| CC[C@@]1(O)C(=O)OCc2c1cc1n(c2=O)Cc2c-1c(=O)c1cc(F)c(C)cc1n2CCNC1CC1 [Example 161] | 200 to 500 nM | < 20 nM | – | – |
| CC[C@@]1(O)C(=O)OCc2c1cc1n(c2=O)Cc2c-1c(=O)c1cc(F)c(C)cc1n2CCNC1CCCC1 [Example 163] | 200 to 500 nM | < 20 nM | – | – |
| CC[C@@]1(O)C(=O)OCc2c1cc1n(c2=O)Cc2c-1c(=O)c1cc(F)c(C)cc1n2CCN(C)C1CC1 [Example 164] | 200 to 500 nM | < 20 nM | – | – |
| CC[C@@]1(O)C(=O)OCc2c1cc1n(c2=O)Cc2c-1c(=O)c1cc(F)c(C)cc1n2CCN(C1CC1)C1CC(F)(F)C1 [Example 165] | 200 to 500 nM | < 20 nM | – | – |
| CC[C@@]1(O)C(=O)OCc2c1cc1n(c2=O)Cc2c-1c(=O)c1cc(F)c(C)cc1n2CCN(C)C1CCCC1 [Example 166] | 200 to 500 nM | < 20 nM | – | – |
| CC[C@@]1(O)C(=O)OCc2c1cc1n(c2=O)Cc2c-1c(=O)c1cc(F)c(C)cc1n2CCN(C1CCCC1)C1CC1 [Example 167] | 200 to 500 nM | < 20 nM | – | – |
| CC[C@@]1(O)C(=O)OCc2c1cc1n(c2=O)Cc2c-1c(=O)c1cc(F)cc(C)c1n2CCNC1CCCC1 [Example 168] | 200 to 500 nM | < 20 nM | – | – |
| CC[C@@]1(O)C(=O)OCc2c1cc1n(c2=O)Cc2c-1c(=O)c1cc(F)cc(C)c1n2CCNC1CC1 [Example 169] | 200 to 500 nM | < 20 nM | – | – |
| CC[C@@]1(O)C(=O)OCc2c1cc1n(c2=O)Cc2c-1c(=O)c1cc(F)cc(C)c1n2CCN(C1CCCC1)C1CC1 [Example 171] | 200 to 500 nM | < 20 nM | – | – |
| CC[C@@]1(O)C(=O)OCc2c1cc1n(c2=O)Cc2c-1c(=O)c1cc(F)cc(C)c1n2CCN(C)C1CCCC1 [Example 172] | 200 to 500 nM | < 20 nM | – | – |
| CC[C@@]1(O)C(=O)OCc2c1cc1n(c2=O)Cc2c-1c(=O)c1cc(F)ccc1n2CCN1CC2(CC2)C1 [Example 182, (S)-11-(2-(5-azaspiro[2.3]hexan-5-yl)ethyl)-4-ethyl-8-fluoro-4-hydroxy-1,12-dihydro-14H-pyrano[3',4':6,7]indolizino[2,1-b]quinoline-3,6,14(4H,11H)-trione] | – | – | 200 to 500 nM | < 20 nM |
| CC[C@@]1(O)C(=O)OCc2c1cc1n(c2=O)Cc2c-1c(=O)c1cc(F)ccc1n2CCN1CCCC1(C)C [Example 184] | < 200 nM | < 20 nM | – | – |
| CC[C@@]1(O)C(=O)OCc2c1cc1n(c2=O)Cc2c-1c(=O)c1cc(F)ccc1n2CCN1CCC(C)(C)CC1 [Example 185] | 200 to 500 nM | < 20 nM | – | – |
| CC[C@@]1(O)C(=O)OCc2c1cc1n(c2=O)Cc2c-1c(=O)c1cc(F)ccc1n2CCN1CC(F)(F)C1 [Example 186] | – | – | 200 to 500 nM | < 20 nM |
